Literature values in US12454714B2, “Monbretin A (MbA) synthesis using a heterologous nucleic acid(s) encoding A MbA pathway enzyme” (The University of British Columbia, priority 2018, dated 2025).
Several values for one entry are separate records, joined by “and”; a condition that tells them apart may be missing. Identical values can stand only once. Like-named read-outs stand apart in the source and are kept apart here.

Key:
[1] = biological target: T1, human pancreatic α-amylase (HPA) (Homo sapiens, UniProt P04746)
T1 sequence (P04746 16-511): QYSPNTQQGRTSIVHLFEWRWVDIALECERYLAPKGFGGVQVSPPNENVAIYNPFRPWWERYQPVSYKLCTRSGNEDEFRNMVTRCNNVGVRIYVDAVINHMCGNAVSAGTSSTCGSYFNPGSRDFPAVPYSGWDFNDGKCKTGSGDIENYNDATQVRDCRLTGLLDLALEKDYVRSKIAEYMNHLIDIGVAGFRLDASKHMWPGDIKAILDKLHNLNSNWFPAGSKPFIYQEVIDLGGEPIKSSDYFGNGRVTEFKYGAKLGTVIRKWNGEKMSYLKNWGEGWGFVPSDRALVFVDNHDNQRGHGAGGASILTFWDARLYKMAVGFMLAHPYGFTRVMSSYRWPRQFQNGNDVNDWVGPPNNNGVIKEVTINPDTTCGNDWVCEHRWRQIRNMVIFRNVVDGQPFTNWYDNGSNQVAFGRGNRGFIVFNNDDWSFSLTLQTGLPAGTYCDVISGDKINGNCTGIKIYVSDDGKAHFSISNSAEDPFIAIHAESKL

[2] = system: “Zucker diabetic fatty” rats
[3] = system: gut α-glucosidases; details: selectivity versus HPA

| HPA inhibition, in words [1] | Ki [1] | Ki ([1]; listed as Mini-MbA) | SMILES | blood-glucose-lowering activity [2] | effect on the gut α-glucosidases [3] |
| --- | --- | --- | --- | --- | --- |
| potent and selective inhibitors | 8 nM and 8.1 nM | – | CC1OC(OC2COC(Oc3c(O)cc(-c4oc5cc(O)cc(O)c5c(=O)c4OC4OC(C)C(O)C(O)C4OC4OC(COC(=O)C=Cc5ccc(O)c(O)c5)C(O)C(O)C4OC4OC(CO)C(O)C(O)C4O)cc3O)C(O)C2O)C(O)C(O)C1O [MbA, myricetin 3-O-(glucosyl-6′-O-caffeoyl)-1,2-β-D-glucosyl 1,2-α-L-rhamnoside 4′-O-α-L-rhamnosyl 1,4-β-D-xyloside] | effective blood-glucose-lowering | does not affect |
| – | 42 nM | – | CC1OC(Oc2c(-c3cc(O)c(O)c(O)c3)oc3cc(O)cc(O)c3c2=O)C(OC2OC(COC(=O)C=Cc3ccc(O)c(O)c3)C(O)C(O)C2OC2OC(CO)C(O)C(O)C2O)C(O)C1O [MbA-XR^2, myricetin 3-O-(glucosyl-6′-O-caffeoyl)-1,2-β-D-glucosyl 1,2-α-L-rhamnoside] | – | – |
| potent and selective inhibitors | 93 nM | 90 nM | CC1OC(Oc2c(-c3cc(O)c(O)c(O)c3)oc3cc(O)cc(O)c3c2=O)C(OC2OC(COC(=O)C=Cc3ccc(O)c(O)c3)C(O)C(O)C2O)C(O)C1O [mini-MbA, myricetin 3-O-(6′-O-caffeoyl)-β-D-glucosyl 1,2-α-L-rhamnoside] | – | – |
